According to US11771649B1, “Pharmaceutical lotion or salve utilizing mixed metal hydroxide antimicrobial charged particles” (Magalum LLC, priority 2021, dated 2023):

Test system: methicillin resistant Staphylococcus aureus
Experiment: Example XXI: wound infected with methicillin resistant Staphylococcus aureus
Format: in vivo, horse
Excerpt: A 4 year old quarter horse mare had received a 4 inch cut on the chest from an encounter with a corral fence and had developed an infection. […] At that time, a specimen was taken from the wound and sent to a diagnostic lab for identification. Treatment of the wound was then started with silver sulfa diazole. When the results were returned from the diagnostic lab, the pathogen was identified as methicillin resistant Staphylococcus aureus. At that time, salve as described in Example 4 was applied to the wound, and then reapplied twice daily.

Molecule | state of wound (prior treatment, after two days) | state of wound (10,000 units per pound body weight injection, after 72 hours)
NC(=O)N/N=C/c1ccc([N+](=O)[O-])o1 [nitrofurazone ointment, nitrofurazone] | no positive result | –
penicillin | – | no improvement was again noted
